Columns and labels:
Format in all cases: in vivo, human
[1] = test system: psoriasis vulgaris; experiment: Case reports, treatment of psoriasis vulgaris; conditions: Patient H, inpatient treatment
Description: A patient suffering from psoriasis vulgaris affecting the whole body started a continuous treatment with black cumin oil for six months after several failed therapies with e.g. Daivobet gel.
A patient suffering from suberythrodermic psoriasis vulgaris with iridocyclitis for 13 years received inpatient treatment to intensify therapy after exacerbation for two weeks and severe itching.
Hyperkeratotic plaques were found between the fingers, discreet macerations between the toes, well defined, deeply red foci at the rima ani, and discreet redness at the penis. The psoriasis area and severity index (PASI) at admission was 36.
During inpatient treatment a therapy with fumaric acid was started; the patient further received Ceterizin and Atarax. […] Local treatments included treatment with dithranol vaseline and kopflanette. Further, the whole integument received baths with soft soap and Balneum-Hermal F. The capillitium received Silix washing oil and betamethasone.
The patient further used Curatoderm emulsion for the face. Intertrigines were treated with Candiohermal and Psorcutan ointment. The PASI at discharge was 14.7.
The further medication after discharge from the hospital included fumaric acid, Loratadin, Psorcutan ointment, urea-containing ointment, and Curatoderm emulsions. […]

[2] = test system: psoriasis arthritis; experiment: Case report, topical treatment of psoriasis arthritis; conditions: Patient D
Description: (§1) Various patients have been treated topically with one of the compositions of Example 1 (Recipe N) and Example 2 (Recipe P). These patients were therapy-refractory, i.e. the patients had already been treated with standard therapies to no avail. […] Since the patients had been suffering from their respective diseases for a long time, the treatment with the compositions of the present invention seems to be effective in all stages of the diseases.
A patient suffering from psoriasis arthritis for more than 12 years received a treatment of the entire body with the composition of Example 2 (Recipe P). The composition was used regularly over two months in an amount of 150 g per day. The patient had already undergone several failed standard treatments, including cortisone treatment.

[3] = test system: atopic eczema; experiment: Case reports, topical treatment of atopic eczema; conditions: Patient B, earlier conventional therapies
Description: as §1
A patient suffering from atopic eczema for all their life received a continuous treatment of the affected body parts (elbows, neck, face, legs) over one month with the composition of Example 1 (Recipe N) in an amount of 1 to 10 grams in two treatments per day.
A patient suffering from atopic eczema for more than 20 years received a treatment of the affected body parts (elbows, neck, face) with the composition of Example 1 (Recipe N) for two weeks in an amount of 3 grams in two treatments per day. […] The patient stated that they had never felt so good in 20 years.
A patient suffering from atopic eczema from early childhood on, including dryness and severe itching of the affected areas of the skin, received treatment with olive oil two times a week for two months. […] Accordingly, the treatment was discontinued.
A patient suffering from atopic eczema since birth received a continuous treatment with black cumin oil for two days.

| SMILES | itching under treatment [1] | outcome of earlier standard treatments [2] | outcome of earlier conventional therapy [3] |
| --- | --- | --- | --- |
| O=C(O)COCCN1CCN(C(c2ccccc2)c2ccc(Cl)cc2)CC1 (stereo not drawn) [Ceterizin] | Itching remained |  |  |
| C[C@]12CCC(=O)C=C1CC[C@@H]1[C@@H]2C(=O)C[C@@]2(C)[C@H]1CC[C@]2(O)C(=O)CO [cortisone] |  | failed | without any success |

— US10350256B2, “Compositions for the treatment of dermatological conditions, disorders or diseases” (Veit Hoermann Gesellschaft Für Unternehmenskommunikation mbH, priority 2012, dated 2019)
